“Also recorded” adds a separate entry of the source. Where two headings read alike, the source gives them in different places. Square brackets hold non-standard residues; d marks the D form. Peptide text beside a SMILES is read from it. * marks the point of attachment. ξ: configuration not given here. Aoe(9ξ) = N[C@@H](CCCCCC(=O)C1CO1)C(=O)O; Asu = N[C@@H](CCCCCC(=O)O)C(=O)O; dPip = O=C(O)[C@H]1CCCCN1; NHOH = ON*

Here are results for eleven compounds from PMC6982123 (ACS chemical neuroscience, 2019).

For data set [1], the target named is HDAC1 (Homo sapiens, UniProt Q13547). Description: biochemical. In kind it is biochemical.
HDAC1, sequence (Q13547 9-376 limits assumed): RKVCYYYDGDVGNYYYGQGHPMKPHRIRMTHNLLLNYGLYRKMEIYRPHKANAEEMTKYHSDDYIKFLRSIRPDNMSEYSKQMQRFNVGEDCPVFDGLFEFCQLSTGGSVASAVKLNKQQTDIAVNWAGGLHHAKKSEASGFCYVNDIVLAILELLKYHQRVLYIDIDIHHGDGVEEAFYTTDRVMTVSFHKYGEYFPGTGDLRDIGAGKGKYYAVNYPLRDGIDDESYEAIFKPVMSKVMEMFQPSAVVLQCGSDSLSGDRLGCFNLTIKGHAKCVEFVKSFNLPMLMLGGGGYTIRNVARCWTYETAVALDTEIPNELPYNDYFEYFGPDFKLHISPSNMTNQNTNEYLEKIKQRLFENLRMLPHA
Data set [2] relates to HDACs 1–3. Description: HDAC inhibition kinetics, summary statement over HDACs 1-3. The settings on record: summary over HDACs 1–3 (Tables 1 and S1). In kind it is biochemical.
For data set [3], the system named is PGRN. Description: Intracellular PGRN ELISA in iPSC-derived NPCs. It counts as cell-based, human. The settings on record: for Effect on PGRN (1 μM, NPCs) / PGRN induction (in words): 18 h treatment; for Effect on PGRN (1 μM, NPCs): intracellular PGRN; for PGRN induction (in words): Figure 2; for EC50: Homo sapiens, read-out: EC50 of PGRN induction (dose-response curves).

Data set [4] deals with H3K9ac. Description: Histone H3 acetylation Western blot in NPCs. In kind it is cell-based, human. In general terms: In western blotting, separated proteins are transferred to a membrane and probed.
The test system of data set [5] is human iPSC-derived NPCs and Ngn2 neurons. Description: Cellular viability during PGRN experiments. In kind it is cell-based. The settings on record: 10 μM, 18 h treatment (Figure 2).
The target of data set [6] is HDAC2 (Homo sapiens, UniProt Q92769). In kind it is biochemical.
HDAC2, sequence (Q92769 9-376 limits assumed): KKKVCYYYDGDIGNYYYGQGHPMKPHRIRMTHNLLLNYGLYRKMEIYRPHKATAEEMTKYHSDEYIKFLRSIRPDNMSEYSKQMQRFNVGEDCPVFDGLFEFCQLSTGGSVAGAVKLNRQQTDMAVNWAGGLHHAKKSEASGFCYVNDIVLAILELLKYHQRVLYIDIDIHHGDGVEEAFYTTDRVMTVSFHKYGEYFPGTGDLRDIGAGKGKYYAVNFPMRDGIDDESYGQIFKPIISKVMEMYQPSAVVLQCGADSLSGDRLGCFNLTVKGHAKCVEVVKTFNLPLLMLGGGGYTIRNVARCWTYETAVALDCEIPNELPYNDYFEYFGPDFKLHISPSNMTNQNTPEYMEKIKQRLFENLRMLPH
Data set [7] has as its system HDAC6. The settings on record: previously reported; cited from earlier work.
Data set [8] concerns the target HDAC3 in combination with the DAD domain of NCoR2 (Homo sapiens, UniProt O15379). Conditions: read-out: Ki HDAC3; cited from earlier work.
The subject of data set [9] is PGRN. Conditions: cited from earlier work.
Data set [10] deals with H3K9ac. Conditions: treatment at 10 μM; cited from earlier work.
The mark [11] stands for this setting: kinetic model from progression curves.

HDAC3 in combination with the DAD domain of NCoR2, sequence (O15379 whole entry, the tested form may be a part): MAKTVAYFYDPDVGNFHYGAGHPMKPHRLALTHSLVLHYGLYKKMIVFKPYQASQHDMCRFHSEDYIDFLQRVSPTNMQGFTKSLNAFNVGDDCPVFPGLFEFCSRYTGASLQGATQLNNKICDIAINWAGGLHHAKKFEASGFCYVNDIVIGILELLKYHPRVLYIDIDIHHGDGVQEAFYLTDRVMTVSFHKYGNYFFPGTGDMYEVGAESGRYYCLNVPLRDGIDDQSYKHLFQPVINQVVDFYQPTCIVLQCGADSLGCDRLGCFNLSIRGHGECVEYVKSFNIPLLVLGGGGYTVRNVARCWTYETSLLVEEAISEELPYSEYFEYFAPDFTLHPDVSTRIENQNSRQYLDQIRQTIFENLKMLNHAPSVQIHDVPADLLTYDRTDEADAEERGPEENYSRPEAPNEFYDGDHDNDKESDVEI
HDAC3 in combination with the DAD domain of NCoR2, sequence (Q9Y618 395-489 partner limits assumed): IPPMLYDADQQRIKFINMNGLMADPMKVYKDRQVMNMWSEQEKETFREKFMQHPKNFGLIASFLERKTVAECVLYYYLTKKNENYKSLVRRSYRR

For orientation: Ki means the equilibrium dissociation constant of an inhibitor or competing ligand from its target. In [1], `C/C=C1\NC(=O)[C@H]2CSSCC/C=C/[C@H](CC(=O)N[C@H](C(C)C)C(=O)N2)OC(=O)[C@H](C(C)C)NC1=O` [Compound 10, romidepsin] came in with a Ki of about 0.02 nM. Also, in [1] (setting [11]), the “Mechanism of binding HDAC1” value is given as “slow, tight-binding (mechanism B)”. Besides, the “dissociative half-life (dis. t½)” value in data set [2] is reported as “over 20 min”. Also, in data set [3] (NPCs), the “Effect on PGRN (1 μM, NPCs)” value is about 4.1 fold incr and the “PGRN induction (in words)” value is “substantial increase in PGRN”. Further, in data set [4] (NPCs, 18 h treatment), the “Effect on H3K9ac (1 μM, NPCs)” value was about 2.3 fold incr. The Cellular viability result in data set [5] was “impaired cellular viability”.
Broadly, the EC50 is the concentration at which the effect is half-maximal. As to `CC(=O)Nc1ccc(C(=O)Nc2ccccc2N)cc1` [Compound 3, tacedinaline], the “Mechanism of binding HDAC1” value in data set [1] (setting [11]) is listed as “mechanism B type of slow-binding inhibition”. Also, the “Mechanism of binding HDAC2” value in [6] was “mechanism B type of slow-binding inhibition”. Further, the EC50 in data set [3] (18 h) was over 20000 nM. In addition, the “PGRN induction (in words)” value in [3] (NPCs) is listed as “not able to affect PGRN production”. Further, the “Effect on PGRN (NPCs)” value in [3] (treatment at 10 μM, NPCs, 18 h) is reported as “Decrease^‡”. Moreover, the “Intensity of histone marks (H3 acetylation at K9 and K27)” value in [4] (Western blot, 18 h treatment, Figure 3 and S7) is recorded as “levels comparable to panobinostat”. Further, the “Effect on H3K9ac (NPCs)” value in data set [4] (treatment at 10 μM, NPCs, 18 h) is about 18 fold incr^‡.
Take `C[C@@H]1NC(=O)[C@H]2CCCN2C(=O)[C@H](CCCCCC(=O)[C@@H]2CO2)NC(=O)[C@@H](C)NC1=O` [Compound S2, HC-toxin]: the “Mechanism of binding HDAC6” value in data set [7] was “fast-on/fast-off kinetics”.
Take trichostatin A [Compound S1]: the “Mechanism of binding HDAC1” value in data set [1] (setting [11]) is given as “slow, tight-binding inhibition profiles (mechanism B)”. Also, the “Mechanism of binding HDAC2” value in data set [6] (setting [11]) is listed as “slow, tight-binding inhibition profiles (mechanism B)”. The “dissociative half-life (dis. t½)” value in [2] was “over 20 min”.
In data set [1], `O=C(CCCCC[C@@H]1NC(=O)[C@H]2CCCCN2C(=O)[C@H](Cc2ccccc2)NC(=O)[C@H](Cc2ccccc2)NC1=O)C1CO1` (stereo partly shown) [Compound 6, trapoxin A] (cyclo(FF[dPip][Aoe(9ξ)])) returned a Ki of about 0.003 nM. In addition, in data set [1] (setting [11]), the “Mechanism of binding HDAC1” value is reported as “mechanism A kinetics”. In data set [6] (setting [11]), the “Mechanism of binding HDAC2” value is “mechanism A kinetics”. In [3] (NPCs), the “Effect on PGRN (1 μM, NPCs)” value was about 2.4 fold incr and the “PGRN induction (in words)” value is given as “substantial increase in PGRN”. Besides, the EC50 in data set [3] (18 h) stood at 22 ± 1 nM. Moreover, the “Effect on H3K9ac (1 μM, NPCs)” value in data set [4] (NPCs, 18 h treatment) is recorded as about 5.0 fold incr.
For the compound `Cc1[nH]c2ccccc2c1CCNCc1ccc(/C=C/C(=O)NO)cc1` [Compound 5, panobinostat], in data set [6] (setting [11]), the “Mechanism of binding HDAC2” value is reported as “slow, tight-binding inhibition profiles (mechanism B); also recorded: effectively irreversible behavior”. Also, in data set [2], the “dissociative half-life (dis. t½)” value is reported as “over 20 min”. In addition, the “Effect on PGRN (1 μM, NPCs)” value in data set [3] (NPCs) is listed as about 2.3 fold incr. Further, the half-maximal effective concentration (EC50) in data set [3] (18 h) was found to be 200 ± 10 nM. The “Effect on H3K9ac (1 μM, NPCs)” value in [4] (NPCs, 18 h treatment) is recorded as about 36 fold incr.
Consider `O=C(CCCCC[C@@H]1NC(=O)[C@H]2CCCN2C(=O)[C@H](Cc2ccccc2)NC(=O)[C@H](Cc2ccccc2)NC1=O)NO` [Compound 7c, TpxB^Asuha] (cyclo([Asu](NHOH)FF[dP])), for which the “dissociative half-life (dis. t½)” value in [2] was “over 20 min”. In addition, in [3] (NPCs), the “Effect on PGRN (1 μM, NPCs)” value is reported as about 2.2 fold incr and the “PGRN induction (in words)” value is “substantial increase in PGRN”. Besides, in data set [4] (NPCs, 18 h treatment), the “Effect on H3K9ac (1 μM, NPCs)” value was about 6.3 fold incr. Besides, the Ki in data set [8] was about 0.02 nM.
`O=C(CCCCCCC(=O)C(F)(F)F)Nc1ccccc1` [Compound 2, SATK]: in data set [3] (NPCs), the “Effect on PGRN (1 μM, NPCs)” value was “No change” and the “PGRN induction (in words)” value is “not able to affect PGRN production”. In data set [4] (NPCs, 18 h treatment), the “Effect on H3K9ac (1 μM, NPCs)” value was “No change”.
For `CC(=O)Nc1ccc(C(=O)Nc2cc(-c3cccs3)ccc2N)cc1` [Compound 4, Cpd-60], the “PGRN induction (in words)” value in data set [9] (human neuronal cell culture) is recorded as “not able to affect PGRN production”.
For the compound `O=C(CCCCCCC(=O)Nc1ccccc1)NO` [Compound 1, SAHA], in [9] (treatment at 10 μM), the “Effect on PGRN (NPCs)” value was >2 fold incr.‡, [10]. Besides, in data set [10], the “Effect on H3K9ac (NPCs)” value is >20 fold incr.‡, [10].
Take `CCC(=O)CCCCC[C@@H]1NC(=O)[C@H]2CCCCN2C(=O)[C@H]([C@@H](C)CC)NC(=O)[C@H](Cc2cn(OC)c3ccccc23)NC1=O` [Compound 8a, apicidin]: in data set [1], the “Mechanism of binding HDAC1” value is “fast-on/fast-off binding kinetics”. Further, the “Mechanism of binding HDAC2” value in data set [6] (setting [11]) is given as “fast-on/fast-off binding kinetics”. Also, the “Effect on PGRN (1 μM, NPCs)” value in [3] (NPCs) is about 1.7 fold incr. Also, the EC50 in data set [3] (18 h) came out at 790 ± 20 nM. In [4] (NPCs, 18 h treatment), the “Effect on H3K9ac (1 μM, NPCs)” value is recorded as about 3.3 fold incr.
